#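 Cells were grown in 96-well plates and exposed to each compound for 48 hours at five concentrations; endpoints were interpolated linearly between bracketing concentrations, or set to the highest concentration if not reached. GI50 is the concentration that inhibits growth by half. TGI marks complete inhibition of growth.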
# Tests used:
# Test in all cases: NCI tumour cell line growth inhibition, 48 h
# SK-MEL-2 melanoma = tested on: SK-MEL-2 melanoma
# SR leukemia = tested on: SR leukemia
# SF-268 CNS = tested on: SF-268 CNS
# MCF7 breast = tested on: MCF7 breast
# IGROV1 ovarian = tested on: IGROV1 ovarian
# RXF 393 renal = tested on: RXF 393 renal
# SF-539 CNS = tested on: SF-539 CNS
# HT29 colon = tested on: HT29 colon
# MDA-MB-435 = tested on: MDA-MB-435
# U251 CNS = tested on: U251 CNS
# HL-60(TB) leukemia = tested on: HL-60(TB) leukemia
# SN12C renal = tested on: SN12C renal
# HCT-15 colon = tested on: HCT-15 colon
# OVCAR-3 ovarian = tested on: OVCAR-3 ovarian
# NCI/ADR-RES ovarian = tested on: NCI/ADR-RES ovarian
# MDA-MB-468 breast = tested on: MDA-MB-468 breast
# DU-145 prostate = tested on: DU-145 prostate
# COLO 205 colon = tested on: COLO 205 colon
# T-47D breast = tested on: T-47D breast
# RPMI-8226 leukemia = tested on: RPMI-8226 leukemia
# UACC-257 melanoma = tested on: UACC-257 melanoma
# EKVX NSCLC = tested on: EKVX NSCLC
# CAKI-1 renal = tested on: CAKI-1 renal
# HOP-92 NSCLC = tested on: HOP-92 NSCLC
# ACHN renal = tested on: ACHN renal
# 786-0 renal = tested on: 786-0 renal
# HS 578T breast = tested on: HS 578T breast
# OVCAR-8 ovarian = tested on: OVCAR-8 ovarian
# HCC-2998 colon = tested on: HCC-2998 colon
# UACC-62 melanoma = tested on: UACC-62 melanoma
# PC-3 prostate = tested on: PC-3 prostate
# MOLT-4 leukemia = tested on: MOLT-4 leukemia
# NCI-H460 lung = tested on: NCI-H460 lung
# MALME-3M melanoma = tested on: MALME-3M melanoma
# SNB-75 CNS = tested on: SNB-75 CNS
# TK-10 renal = tested on: TK-10 renal
# NCI-H226 lung = tested on: NCI-H226 lung
# A549 NSCLC = tested on: A549 NSCLC
# CCRF-CEM leukemia = tested on: CCRF-CEM leukemia
# KM12 colon = tested on: KM12 colon
# MDA-MB-231 breast = tested on: MDA-MB-231 breast
# SNB-19 CNS = tested on: SNB-19 CNS
# SK-OV-3 ovarian = tested on: SK-OV-3 ovarian
# SF-295 CNS = tested on: SF-295 CNS
# SW-620 colon = tested on: SW-620 colon
# K-562 leukemia = tested on: K-562 leukemia
# HOP-62 NSCLC = tested on: HOP-62 NSCLC
# NCI-H23 lung = tested on: NCI-H23 lung
# NCI-H522 lung = tested on: NCI-H522 lung
# OVCAR-5 ovarian = tested on: OVCAR-5 ovarian
# A498 renal = tested on: A498 renal
# LOX IMVI melanoma = tested on: LOX IMVI melanoma
# OVCAR-4 ovarian = tested on: OVCAR-4 ovarian
# HCT-116 colon = tested on: HCT-116 colon
# SK-MEL-28 melanoma = tested on: SK-MEL-28 melanoma
# UO-31 renal = tested on: UO-31 renal
# BT-549 breast = tested on: BT-549 breast
# SK-MEL-5 melanoma = tested on: SK-MEL-5 melanoma
# M14 melanoma = tested on: M14 melanoma
smiles,measurement,setting,value
COC(=O)C[C@](O)(CCC(C)C)C(=O)O[C@H]1C(OC)=C[C@@]23CCCN2CCc2cc4c(cc2[C@@H]13)OCO4,GI50,SK-MEL-2 melanoma,1.62 µM
same,TGI,SK-MEL-2 melanoma,8.71 µM
same,GI50,SR leukemia,17.1 µM
same,TGI,SR leukemia,> 40.5 µM
same,TGI,SF-268 CNS,> 19.6 µM
same,GI50,MCF7 breast,1.37 µM
same,TGI,IGROV1 ovarian,> 15.1 µM
same,GI50,RXF 393 renal,2.65 µM
same,GI50,SF-539 CNS,3.17 µM
same,TGI,SF-539 CNS,> 8.07 µM
same,GI50,HT29 colon,4.69 µM
same,TGI,HT29 colon,> 14 µM
same,TGI,MDA-MB-435,> 14.4 µM
same,TGI,U251 CNS,> 11.9 µM
same,GI50,HL-60(TB) leukemia,2400 nM
same,TGI,SN12C renal,> 19.3 µM
same,GI50,HCT-15 colon,4.08 µM
same,TGI,HCT-15 colon,> 9.64 µM
same,TGI,OVCAR-3 ovarian,> 12.9 µM
same,GI50,NCI/ADR-RES ovarian,1.5 µM
same,TGI,NCI/ADR-RES ovarian,12 µM
same,GI50,MDA-MB-468 breast,1.8 µM
same,TGI,MDA-MB-468 breast,> 8.31 µM
same,TGI,DU-145 prostate,> 13.8 µM
same,TGI,COLO 205 colon,> 13.8 µM
same,TGI,T-47D breast,> 22.9 µM
same,TGI,RPMI-8226 leukemia,> 8.64 µM
same,TGI,UACC-257 melanoma,> 12.7 µM
same,TGI,EKVX NSCLC,> 16.8 µM
same,TGI,CAKI-1 renal,> 25.1 µM
same,TGI,HOP-92 NSCLC,> 11 µM
same,GI50,ACHN renal,3.59 µM
same,TGI,ACHN renal,> 10.9 µM
same,TGI,786-0 renal,> 12.3 µM
same,TGI,HS 578T breast,> 11.1 µM
same,TGI,OVCAR-8 ovarian,> 13.8 µM
same,GI50,HCC-2998 colon,2.58 µM
same,TGI,UACC-62 melanoma,> 14.6 µM
same,TGI,PC-3 prostate,> 13.4 µM
same,GI50,MOLT-4 leukemia,10.5 µM
same,TGI,MOLT-4 leukemia,> 40.5 µM
same,GI50,NCI-H460 lung,1.51 µM
same,GI50,MALME-3M melanoma,3.62 µM
same,TGI,MALME-3M melanoma,> 8.33 µM
same,TGI,SNB-75 CNS,> 11 µM
same,GI50,TK-10 renal,> 8 µM
same,TGI,TK-10 renal,> 37.1 µM
same,GI50,NCI-H226 lung,2.57 µM
same,TGI,NCI-H226 lung,> 10.2 µM
same,TGI,A549 NSCLC,> 13.6 µM
same,GI50,CCRF-CEM leukemia,4.62 µM
same,TGI,CCRF-CEM leukemia,> 11.2 µM
same,TGI,KM12 colon,> 15.6 µM
same,TGI,MDA-MB-231 breast,> 17.8 µM
same,GI50,SNB-19 CNS,3.91 µM
same,TGI,SNB-19 CNS,> 10.2 µM
same,TGI,SK-OV-3 ovarian,> 31 µM
same,TGI,SF-295 CNS,> 11.2 µM
same,TGI,SW-620 colon,> 16.5 µM
same,GI50,K-562 leukemia,2.73 µM
same,TGI,K-562 leukemia,> 40.5 µM
same,TGI,HOP-62 NSCLC,> 21.9 µM
same,TGI,NCI-H23 lung,> 9.5 µM
same,GI50,NCI-H522 lung,3.3 µM
same,TGI,NCI-H522 lung,> 8.77 µM
same,TGI,OVCAR-5 ovarian,> 15.7 µM
same,TGI,A498 renal,> 9.75 µM
same,GI50,LOX IMVI melanoma,2.54 µM
same,TGI,OVCAR-4 ovarian,> 15.5 µM
same,GI50,HCT-116 colon,16.8 µM
same,TGI,HCT-116 colon,> 40.5 µM
same,TGI,SK-MEL-28 melanoma,> 10.6 µM
same,TGI,UO-31 renal,> 14.8 µM
same,TGI,BT-549 breast,> 10.1 µM
COc1cc2nc(SCc3ccccc3)n(-c3ccc(Cl)cc3)c(=O)c2cc1OC,GI50,SK-MEL-2 melanoma,36.8 µM
same,TGI,SK-MEL-2 melanoma,> 100 µM
same,GI50,SR leukemia,16.5 µM
same,TGI,SR leukemia,> 100 µM
same,GI50,SF-268 CNS,10.3 µM
same,TGI,SF-268 CNS,44.4 µM
same,GI50,SK-MEL-5 melanoma,47.9 µM
same,TGI,SK-MEL-5 melanoma,> 100 µM
same,GI50,MCF7 breast,14.5 µM
same,TGI,MCF7 breast,> 100 µM
same,GI50,IGROV1 ovarian,20.8 µM
same,TGI,IGROV1 ovarian,80.4 µM
same,GI50,RXF 393 renal,4.99 µM
same,TGI,RXF 393 renal,27.8 µM
same,GI50,SF-539 CNS,7.07 µM
same,TGI,SF-539 CNS,20.1 µM
same,GI50,HT29 colon,40.4 µM
same,TGI,HT29 colon,> 100 µM
same,GI50,MDA-MB-435,64.1 µM
same,TGI,MDA-MB-435,> 100 µM
same,GI50,U251 CNS,8.14 µM
same,TGI,U251 CNS,31.8 µM
same,GI50,HL-60(TB) leukemia,> 100000 nM
same,TGI,HL-60(TB) leukemia,> 100 µM
same,GI50,SN12C renal,11.5 µM
same,TGI,SN12C renal,75.8 µM
same,GI50,HCT-15 colon,19 µM
same,TGI,HCT-15 colon,> 100 µM
same,GI50,OVCAR-3 ovarian,15.8 µM
same,TGI,OVCAR-3 ovarian,44.5 µM
same,GI50,NCI/ADR-RES ovarian,6.25 µM
same,TGI,NCI/ADR-RES ovarian,22.7 µM
same,GI50,MDA-MB-468 breast,7.61 µM
same,TGI,MDA-MB-468 breast,45.6 µM
same,GI50,DU-145 prostate,22.3 µM
same,TGI,DU-145 prostate,98.1 µM
same,GI50,COLO 205 colon,29.4 µM
same,TGI,COLO 205 colon,> 100 µM
same,GI50,T-47D breast,28.1 µM
same,TGI,T-47D breast,> 100 µM
same,GI50,RPMI-8226 leukemia,66.1 µM
same,TGI,RPMI-8226 leukemia,> 100 µM
same,GI50,UACC-257 melanoma,39.2 µM
same,TGI,UACC-257 melanoma,> 100 µM
same,GI50,EKVX NSCLC,16.6 µM
same,TGI,EKVX NSCLC,50.5 µM
same,GI50,CAKI-1 renal,3.34 µM
same,TGI,CAKI-1 renal,13.7 µM
same,GI50,HOP-92 NSCLC,16.1 µM
same,TGI,HOP-92 NSCLC,49 µM
same,GI50,ACHN renal,4.69 µM
same,TGI,ACHN renal,19 µM
same,GI50,786-0 renal,3.84 µM
same,TGI,786-0 renal,15.6 µM
same,GI50,HS 578T breast,6.63 µM
same,TGI,HS 578T breast,48.6 µM
same,GI50,OVCAR-8 ovarian,17.5 µM
same,TGI,OVCAR-8 ovarian,66.6 µM
same,GI50,HCC-2998 colon,22.5 µM
same,TGI,HCC-2998 colon,> 100 µM
same,GI50,UACC-62 melanoma,42.8 µM
same,TGI,UACC-62 melanoma,> 100 µM
same,GI50,PC-3 prostate,16.1 µM
same,TGI,PC-3 prostate,> 100 µM
same,GI50,MOLT-4 leukemia,25.2 µM
same,TGI,MOLT-4 leukemia,> 100 µM
same,GI50,NCI-H460 lung,8.29 µM
same,TGI,NCI-H460 lung,33.2 µM
same,GI50,MALME-3M melanoma,19.1 µM
same,TGI,MALME-3M melanoma,68.5 µM
same,GI50,SNB-75 CNS,2270 nM
same,TGI,SNB-75 CNS,7.86 µM
same,GI50,TK-10 renal,20.3 µM
same,TGI,TK-10 renal,44.9 µM
same,GI50,NCI-H226 lung,3.55 µM
same,TGI,NCI-H226 lung,22.7 µM
same,GI50,A549 NSCLC,8.69 µM
same,TGI,A549 NSCLC,29.6 µM
same,GI50,CCRF-CEM leukemia,38.1 µM
same,TGI,CCRF-CEM leukemia,> 100 µM
same,GI50,KM12 colon,> 100 µM
same,TGI,KM12 colon,> 100 µM
same,GI50,MDA-MB-231 breast,16.7 µM
same,TGI,MDA-MB-231 breast,79.1 µM
same,GI50,SNB-19 CNS,12.6 µM
same,TGI,SNB-19 CNS,36 µM
same,GI50,SK-OV-3 ovarian,16.6 µM
same,TGI,SK-OV-3 ovarian,53 µM
same,GI50,SF-295 CNS,4.36 µM
same,TGI,SF-295 CNS,17.8 µM
same,GI50,SW-620 colon,20.1 µM
same,TGI,SW-620 colon,> 100 µM
same,GI50,K-562 leukemia,12 µM
same,TGI,K-562 leukemia,35.6 µM
same,GI50,HOP-62 NSCLC,4.65 µM
same,TGI,HOP-62 NSCLC,18.4 µM
same,GI50,NCI-H23 lung,11.2 µM
same,TGI,NCI-H23 lung,30.7 µM
same,GI50,NCI-H522 lung,18.9 µM
same,TGI,NCI-H522 lung,88.2 µM
same,GI50,OVCAR-5 ovarian,31 µM
same,TGI,OVCAR-5 ovarian,> 100 µM
same,GI50,A498 renal,19.6 µM
same,TGI,A498 renal,45.2 µM
same,GI50,M14 melanoma,42.7 µM
same,TGI,M14 melanoma,> 100 µM
same,GI50,LOX IMVI melanoma,5.77 µM
same,TGI,LOX IMVI melanoma,18.9 µM
same,GI50,OVCAR-4 ovarian,3.54 µM
same,TGI,OVCAR-4 ovarian,16.9 µM
same,GI50,HCT-116 colon,5.09 µM
same,TGI,HCT-116 colon,23.4 µM
same,GI50,SK-MEL-28 melanoma,21.8 µM
same,TGI,SK-MEL-28 melanoma,> 100 µM
same,GI50,UO-31 renal,13.9 µM
same,TGI,UO-31 renal,51.7 µM
same,GI50,BT-549 breast,22 µM
same,TGI,BT-549 breast,82.4 µM

# From PubChem BioAssay (NCI)
